{
  "source": "patent US5045548A",
  "about": "“Quinolyl methoxy compounds and their use as antiasthmatic agents” (Fujisawa Pharmaceutical Company, Ltd., priority 1987, dated 1991)",
  "key": {"[1]": {"test_system": "SRS-A (Slow Reacting Substance of Anaphylaxis) synthesis in rat polymorpholeukocyte (PMN)", "assay": "Inhibitory Activity of SRS-A synthesis in rat polymorpholeukocyte (PMN) using the calcium ionophore A23187 (i-LTC4 by radioimmunoassay)", "type": "cell-based, rat (male Sprague-Dawley)", "settings": "Rattus norvegicus, 0.25 h, 10 μM A23187, 15 min, 37° C.", "experimental": "Test I: Inhibitory Activity of SRS-A (Slow Reacting Substance of Anaphylaxis) synthesis in rat polymorpholeukocyte (PMN) of using the calcium ionophore Male Sprague-Dawley rats weighing 250-300 g were anesthetized with ether and each was injected intraperitoneally with 20 ml of 0.1% clycogen (from Oyster). After 20 hours the rats were sacrificed and PMN were recovered in rinse of the peritoneal cavity with 10 ml Dulbeccos PBS (components in g/L: CaCl2 0.1, KH2 PO4 0.2, MgCl2.6H2 O 0.1, NaCl 8.0, Na2 HPO4.7H2 O 2.16; pH7.4). These rinses were filtered through nylon wool filter and centrifuged for 5 min at 1000 xg. The pellet was suspended in Dulbeccos PBS and centrifuged for 5 min at 1000 xg. The pellet was resuspended in Dulbeccos PBS and adjusted the cell concentration to 10^7 cells/ml with Dulbeccos PBS. Samples were dissolved in ethanol and dispersed in Dulbeccos PBS to give a concentration of 10^-10 -10^-5 M Antibiotic A23187; calcium ionophor ([…] Diagnostics) (hereinafter referred to A23187) in DMSO(10mM) was diluted with Dulbeccos PBS to give the concentration of 1 mM. Aliquots of the cell suspension (1×10^7 cells/ml, 0.98 ml) were equilibrated for 30 min at 37° C. Solution of sample(10 μl) was added and incubated for 15 min at 37° C. before the addition of 10 μl of A23187 solution. Thus the final incubation volume of 1 ml contained approximately 1×10^7 cells, 10^-10 -10^-5 M samples and 10 μM A23187. Incubation with A23187 were continued for 15 min at 37° C. The reactions were terminated by setting the assay tubes in ice bath to chill as rapidly as possible to 4° C. The test tubes were centrifuged at 1500 xg for 5 min at 4° C. and decanted the supernatants into the tubes and kept cold prior to assaying. The concentration of i-LTC4 in the cell-free supernatants from the incubations were determined by specific radioimmunoassay. The mean values of i-LTC4 (these incubations were carried out in duplicate) of each sample were calculated and the effect of samples on the synthesis of the leukotrienes was presented as a percentage of the value in the absence of samples."}, "[2]": {"test_system": "CDE-induced pancreatitis in mice", "assay": "Effect on experimental pancreatitis in mice (CDE diet-induced, lethal)", "type": "in vivo, mouse (female ICR)", "settings": "for % survival: orally two times a day for 4 days, N = 20, control 15", "from_the_text": "Test III: Effect on experimental pancreatitis in mice\nThe effect of 5-lipoxygenase inhibitor, the compound of Example 40 was studied in a lethal form of pancreatitis induced by feeding mice an ehionine-supplemented choline-deficient diet (CDE diet).\nFemale ICR mice, aged 3 wk were used in this study. All mice were fed a regular laboratory diet before the experiments. The CDE diet was then substituted for 2 days, and after this period replaced by the regular diet for an additional 6 days.\nThe compound of Example 40 was administered orally two times a day for 4 days after the beginning of the CDE diet."}, "[3]": {"test_system": "Intimal Thickening of Rabbit Carotid Artery", "assay": "Antiatherosclerotic activity: cuff-induced intimal thickening of rabbit carotid artery", "type": "in vivo, rabbit (male Japanese white)", "settings": "i.m.; for Intimal thickening index: once a day, 3 weeks, mean ± SE (n = 8)", "from_the_text": "Induction of Intimal Thickening of Rabbit Carotid Artery\nForty male Japanese white rabbits weighing about 2 kg were used for the test of the compound of Example 40. They were divided into 5 groups of 8 animals: one served as control, and the other 4 as drug dose groups. The rabbits were anesthetized with care not to injure the surrounding tissues. A polyetherylene cuff (1.5 cm long, 2.15 mm inner diameter, 3.25 mm outer diameter) was placed around the artery. The rabbits were maintained for 3 weeks on standard laboratory diet and water ad libitum. The compound of Example 40 and the vehicle (0.5%, w/v methyl cellulose in saline) were given intramuscularly once a day starting from the day of cuff-placement. At the end of the 3rd week, the rabbits were heparinized (500, i.v.), and the artery was removed, washed free of blood with saline, fixed by immersion in 10% formalin and divided into 8 cross-segments about 2 mm long. The segments were embedded in paraffin and cut into transverse sections. These sections were stained with orecin. About 70 transverse sections were prepared form each artery and used for the quantitation of the initimal thickening.\nQuantitation of Intimal Thickening (Intimal Thickening Index)\nThe arterial sections were observed by light microscopy and the intimal thickening was scored as follows. 0=no thickening; 1=slight hyperplasia in the subendothelial space with intima media ratio of about 1/10; 2=several layers of cells in the subendothelial space with intima media ratio of about 1/5, or parts of the subendothelial space with more hyperplasia; 3=sever hyperplasia throughout the subendothelial space with intima media ratio of more than 1/3."}, "[4]": {"settings": "0.1 mg/kg, P < 0.01 compared with vehicle control"}, "[5]": {"settings": "10 mg/kg, P < 0.01 compared with vehicle control"}},
  "data": [
    {"smiles": "CCCCC1(CCCC)CCc2c(OCc3ccc4ccccc4n3)cccc2C1O", "note": "(single isomer, unassigned; (+)) [Example 40, (+)-2,2-dibutyl-5-(2-quinolylmethoxy)-1,2,3,4-tetrahydro-1-naphthol]", "values": [
      {"measurement": "IC50", "setting": "[1]", "result": 6.5, "unit": "nM"},
      {"measurement": "% survival", "setting": "[2]; 10 mg/kg", "result": 10, "unit": "%"},
      {"measurement": "% survival", "setting": "[2]; 32 mg/kg", "result": 35, "unit": "%"},
      {"measurement": "% survival", "setting": "[2]; 100 mg/kg", "result": 85, "unit": "%"},
      {"measurement": "prevention of CDE-induced pancreatitis (in words)", "setting": "[2]; orally, 10-100 mg/kg", "result": "prevented the CDE-induced pancreatitis in a dose-dependent manner"},
      {"measurement": "Intimal thickening index, percentage versus the mean value of vehicle control", "setting": "[3]; 0.01 mg/kg", "result": 90.1, "unit": "%"},
      {"measurement": "Intimal thickening index", "setting": "[3]; 0.01 mg/kg", "result": "1.27 ± 0.17"},
      {"measurement": "Intimal thickening index", "setting": "[3]; [4]", "result": "0.71 ± 0.16"},
      {"measurement": "Intimal thickening index, percentage versus the mean value of vehicle control", "setting": "[3]; [4]", "result": 50.4, "unit": "%"},
      {"measurement": "Intimal thickening index, percentage versus the mean value of vehicle control", "setting": "[3]; 1.0 mg/kg", "result": 65.9, "unit": "%"},
      {"measurement": "Intimal thickening index", "setting": "[3]; 1.0 mg/kg", "result": "0.93 ± 0.31"},
      {"measurement": "inhibition of cuff-induced intimal thickening (in words)", "setting": "[3]; 0.01-10 mg/kg", "result": "dose-dependently inhibited cuff-induced intimal thickening"},
      {"measurement": "inhibitory activity on intimal thickening (in words)", "setting": "[3]; 10 mg/kg", "result": "exerted significant inhibitory activity"},
      {"measurement": "Intimal thickening index", "setting": "[3]; [5]", "result": "0.60±0.21"},
      {"measurement": "Intimal thickening index, percentage versus the mean value of vehicle control", "setting": "[3]; [5]", "result": 42.5, "unit": "%"}
    ]}
  ]
}
